These results are taken from patent US8946212B2, “Annelated N-heterocyclic sulfonamides with oxadiazolone headgroup, processes for their preparation and their use as pharmaceuticals” (Sanofi-Aventis, priority 2008, dated 2015).

The conditions of experiment [1]: diabetic animal model; cited from earlier work.
For experiment [2] the following is noted: rhesus monkeys; cited from earlier work.
For experiment [3] the following is noted: cynomolgus monkeys; cited from earlier work.
For experiment [4] the following is noted: two weeks clinical trials in healthy volunteers; cited from earlier work.
For another experiment, the target named is T1, human PPARdelta (Homo sapiens, UniProt Q03181).
T1 construct: human PPARdelta receptor (amino acids S139-Y441); expressed in transfected cells; host or cells: HEK (human embryo kidney) cells, stably transfected; plasmid pcDNA3
T1 sequence (Q03181 139-441): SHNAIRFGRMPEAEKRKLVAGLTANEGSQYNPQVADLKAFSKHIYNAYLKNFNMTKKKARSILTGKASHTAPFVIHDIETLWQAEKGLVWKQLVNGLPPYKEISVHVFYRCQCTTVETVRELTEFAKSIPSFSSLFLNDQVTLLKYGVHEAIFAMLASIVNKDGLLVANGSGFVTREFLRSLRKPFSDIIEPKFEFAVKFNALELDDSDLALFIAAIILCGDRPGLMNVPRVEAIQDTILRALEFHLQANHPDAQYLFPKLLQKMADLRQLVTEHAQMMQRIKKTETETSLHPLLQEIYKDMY
The experiment in a line: Cellular PPARdelta assay (HEK reporter cell line, luciferase). To be noted: PPARdelta reporter cell line (HEK, GR-GAL4-humanPPARdelta-LBD). In kind it is cell-based. Here is the method: The potency of substances which bind to human PPARdelta and activate it in an agonistic manner is analyzed using a stably transfected HEK cell line (HEK=human embryo kidney) which is referred to here as PPARdelta reporter cell line. In analogy to the assay described for PPARalpha, the PPARdelta reporter cell line also contains two genetic elements, a luciferase reporter element (pdeltaM-GAL4-Luc-Zeo) and a PPARdelta fusion protein (GR-GAL4-humanPPARdelta-LBD) which mediates expression of the luciferase reporter element depending on a PPARdelta ligand. The stably and constitutively expressed fusion protein GR-GAL4-humanPPARdelta-LBD binds in the cell nucleus of the PPARdelta reporter cell line via the GAL4 protein portion to the GAL4 DNA binding motifs 5″-upstream of the luciferase reporter element which is stably integrated in the genome of the cell line. There is only little expression of the luciferase reporter gene in the absence of a PPARdelta ligand if fatty acid-depleted fetal calf serum (cs-FCS) is used in the assay. PPARdelta ligands bind and activate the PPARdelta fusion protein and thereby stimulate expression of the luciferase reporter gene. The luciferase which is formed can be detected by means of chemiluminescence via an appropriate substrate.
The production of the stable PPARdelta reporter cell line is based on a stable HEK-cell clone which was stably transfected with a luciferase reporter element. This step was already described above in the section “construction of the PPARalpha reporter cell line”. In a second step, the PPARdelta fusion protein (GR-GAL4-humanPPARdelta-LBD was stably introduced into this cell clone. For this purpose, the cDNA coding for the N-terminal 76 amino acids of the glucocorticoid receptor (Accession # P4150) was linked to the cDNA section coding for amino acids 1-147 of the yeast transcription factor GAL4 (Accession #P04386). The cDNA of the ligand-binding domain of the human PPARdelta receptor (amino acids S139-Y441; Accession # L07592) was cloned in at the 3′-end of this GR-GAL4 construct. The fusion construct prepared in this way (GR-GAL4-humanPPARdelta-LBD) was recloned into the plasmid pcDNA3 (Invitrogen) in order to enable constitutive expression by the cytomegalovirus promoter. This plasmid was linearized with a restriction endonuclease and stably transfected into the previously described cell clone containing the luciferase reporter element. The resulting PPARdelta reporter cell line which contains a luciferase reporter element and constitutively expresses the PPARdelta fusion protein (GR-GAL4-human PPARdelta-LBD) was isolated by selection with zeocin (0.5 mg/ml) and G418 (0.5 mg/ml).
The activity of PPARdelta agonists is determined in a 3-day assay in exact analogy to the procedure already described for the PPARalpha reporter cell line except that the PPARdelta reporter cell line and a specific PPARdelta agonist was used as a standard to control test efficacy.

The target of the next experiment is T2, human PPARalpha (Homo sapiens, UniProt Q07869).
T2 construct: human PPARalpha receptor (amino acids S167-Y468); expressed in transfected cells; host or cells: HEK (human embryo kidney) cells, stably transfected; plasmid pcDNA3
T2 sequence (Q07869 167-468): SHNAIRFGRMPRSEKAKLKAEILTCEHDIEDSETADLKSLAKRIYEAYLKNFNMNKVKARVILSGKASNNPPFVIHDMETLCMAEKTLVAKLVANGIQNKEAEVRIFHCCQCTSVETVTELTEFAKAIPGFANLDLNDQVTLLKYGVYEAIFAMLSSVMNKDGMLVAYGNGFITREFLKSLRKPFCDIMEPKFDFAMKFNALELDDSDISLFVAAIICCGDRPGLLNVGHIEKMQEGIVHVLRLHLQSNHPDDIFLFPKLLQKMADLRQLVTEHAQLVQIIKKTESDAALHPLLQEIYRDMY
Nature of the experiment: Cellular PPARalpha assay (HEK reporter cell line, luciferase). Format: cell-based. To be noted: PPARalpha reporter cell line (HEK, GR-GAL4-humanPPARalpha-LBD). Here is the method: The potency of substances which bind to human PPARalpha and activate it in an agonistic manner is analyzed using a stably transfected HEK cell line (HEK=human embryo kidney) which is referred to here as PPARalpha reporter cell line. It contains two genetic elements, a luciferase reporter element (pdeltaM-GAL4-Luc-Zeo) and a PPARalpha fusion protein (GR-GAL4-humanPPARalpha-LBD) which mediates expression of the luciferase reporter element depending on a PPARalpha ligand. The stably and constitutively expressed fusion protein GR-GAL4-humanPPARalpha-LBD binds in the cell nucleus of the PPARalpha reporter cell line via the GAL4 protein portion to the GAL4 DNA binding motifs 5′-upstream of the luciferase reporter element which is stably integrated in the genome of the cell line. There is only weak expression of the luciferase reporter gene in the absence of a PPARalpha ligand if fatty acid-depleted fetal calf serum (cs-FCS) is used in the assay. PPARalpha ligands bind and activate the PPARalpha fusion protein and thereby stimulate the expression of the luciferase reporter gene. The luciferase which is formed can be detected by means of chemiluminescence via an appropriate substrate.
The PPARalpha reporter cell line was prepared in two stages. […]
The activity of PPARalpha agonists is determined in a 3-day assay which is described below: […]

For experiment [5] the following is noted: obese, insulin resistant rhesus monkeys, cited from earlier work.

What is called EC50 is the midpoint of the concentration-response curve. A lower EC50 goes with a more potent agent.

Like-named read-outs stand apart in the source and are kept apart here.

As for `CCCc1c(OCCCOc2ccc(OCC(=O)O)cc2)ccc(C(C)=O)c1O` [Example L-165041], the plasma cholesterol result in experiment [1] is “raises”. Turning to `CCCc1c(OCCCSc2nnc(SCC(=O)O)s2)ccc(C(C)=O)c1O` [YM-16638], the plasma lipids result in experiment [2] was “significantly lowers”; in experiment [3], “significantly lowers”; in experiment [4], “acts in a similar manner”.

In the case of “3-{4-[6-(4-Trifluoromethyl-phenyl)-3,4-dihydro-2H-quinolin-1-yl]-phenyl}-4H-[1,2,4]oxadiazol-5-one [Example 1]”, a half-maximal response at human PPARdelta (EC50) required 2.3 nM. That is a single-digit nanomolar value. Consider `O=c1[nH]c(-c2ccc(S(=O)(=O)N3CCCc4nc(-c5ccc(C(F)(F)F)cc5)ccc43)cc2Cl)no1` [Example 13, 3-{2-Chloro-4-[6-(4-trifluoromethyl-phenyl)-3,4-dihydro-2H-[1,5]naphthyridine-1-sulfonyl]-phenyl}-4H-[1,2,4]oxadiazol-5-one], for which the EC50 at human PPARalpha is 505 nM; on human PPARdelta, 0.4 nM.

As for `O=c1[nH]c(-c2ccc(S(=O)(=O)N3CCNCc4cc(-c5ccc(C(F)(F)F)cc5)ccc43)cc2Cl)no1` [Example 12, 3-{2-Chloro-4-[7-(4-trifluoromethyl-phenyl)-2,3,4,5-tetrahydro-benzo[e][1,4]diazepine-1-sulfonyl]-phenyl}-4H-[1,2,4]oxadiazol-5-one], at human PPARdelta, the half-maximal effective concentration (EC50) is 530 nM. Same read-out and setting: under “3-{2-Chloro-4-[4,4-dimethyl-6-(4-trifluoromethyl-phenyl)-3,4-dihydro-2H-quinolin-1-yl]-phenyl}-4H-[1,2,4]oxadiazol-5-one [Example 3]” stands 3.3 nM; under “3-{2-Chloro-4-[7-(4-trifluoromethyl-phenyl)-2,3-dihydro-pyrido[3,2-b][1,4]oxazin-4-yl]-phenyl}-4H-[1,2,4]oxadiazol-5-one [Example 8]”, 55 nM; under `CC1(C)Cc2cc(-c3ccc(C(F)(F)F)cc3)ccc2N(c2ccc(-c3noc(=O)[nH]3)c(Cl)c2)C1` [Example 5, 3-{2-Chloro-4-[3,3-dimethyl-6-(4-trifluoromethyl-phenyl)-3,4-dihydro-2H-quinolin-1-yl]-phenyl}-4H-[1,2,4]oxadiazol-5-one], 1.9 nM.

As for `Cc1cc(SCc2sc(-c3ccc(C(F)(F)F)cc3)nc2C)ccc1OCC(=O)O` [GW501516], in experiment [5] (plasma), the insulin levels entry is “decreases” and the triglycerides entry is listed as “decreases”. For the same molecule, in experiment [5], the HDL-cholesterol result is “raises” and the “plasma LDL-cholesterol” value is “decreases”.
